In BigSolDB 2.1:

## CC1=CC(=O)c2ccccc2C1=O
In benzene, 299.44 K
  solubility (mole fraction): 0.109
In benzene, 304.83 K
  solubility (mole fraction): 0.13
In benzene, 309.71 K
  solubility (mole fraction): 0.152
In benzene, 313.92 K
  solubility (mole fraction): 0.174
In benzene, 317.75 K
  solubility (mole fraction): 0.197
In benzene, 321.86 K
  solubility (mole fraction): 0.224
In benzene, 326.75 K
  solubility (mole fraction): 0.262
In benzene, 330.75 K
  solubility (mole fraction): 0.297
In benzene, 334.65 K
  solubility (mole fraction): 0.334
In benzene, 338.96 K
  solubility (mole fraction): 0.379
In ethylbenzene, 302.85 K
  solubility (mole fraction): 0.0976
In ethylbenzene, 309.44 K
  solubility (mole fraction): 0.122
In ethylbenzene, 314.77 K
  solubility (mole fraction): 0.146
In ethylbenzene, 319.53 K
  solubility (mole fraction): 0.173
In ethylbenzene, 323.75 K
  solubility (mole fraction): 0.199
In ethylbenzene, 327.93 K
  solubility (mole fraction): 0.228
In ethylbenzene, 331.75 K
  solubility (mole fraction): 0.26
In ethylbenzene, 335.44 K
  solubility (mole fraction): 0.297
In ethylbenzene, 339.42 K
  solubility (mole fraction): 0.342
In ethylbenzene, 343.86 K
  solubility (mole fraction): 0.396
In m-xylene, 301.65 K
  solubility (mole fraction): 0.127
In m-xylene, 307.74 K
  solubility (mole fraction): 0.151
In m-xylene, 312.76 K
  solubility (mole fraction): 0.176
In m-xylene, 317.36 K
  solubility (mole fraction): 0.202
In m-xylene, 321.64 K
  solubility (mole fraction): 0.23
In m-xylene, 325.94 K
  solubility (mole fraction): 0.258
In m-xylene, 329.73 K
  solubility (mole fraction): 0.288
In m-xylene, 333.64 K
  solubility (mole fraction): 0.323
In m-xylene, 337.61 K
  solubility (mole fraction): 0.364
In m-xylene, 341.55 K
  solubility (mole fraction): 0.411
In o-xylene, 302.95 K
  solubility (mole fraction): 0.14
In o-xylene, 309.24 K
  solubility (mole fraction): 0.169
In o-xylene, 314.25 K
  solubility (mole fraction): 0.194
In o-xylene, 318.34 K
  solubility (mole fraction): 0.219
In o-xylene, 322.45 K
  solubility (mole fraction): 0.245
In o-xylene, 326.77 K
  solubility (mole fraction): 0.274
In o-xylene, 330.54 K
  solubility (mole fraction): 0.305
In o-xylene, 334.23 K
  solubility (mole fraction): 0.34
In o-xylene, 338.32 K
  solubility (mole fraction): 0.383
In o-xylene, 342.43 K
  solubility (mole fraction): 0.432
In p-xylene, 302.5 K
  solubility (mole fraction): 0.129
In p-xylene, 309.53 K
  solubility (mole fraction): 0.158
In p-xylene, 314.64 K
  solubility (mole fraction): 0.184
In p-xylene, 318.96 K
  solubility (mole fraction): 0.21
In p-xylene, 323.35 K
  solubility (mole fraction): 0.239
In p-xylene, 327.68 K
  solubility (mole fraction): 0.269
In p-xylene, 332.02 K
  solubility (mole fraction): 0.304
In p-xylene, 335.89 K
  solubility (mole fraction): 0.344
In p-xylene, 340.1 K
  solubility (mole fraction): 0.39
In p-xylene, 344.24 K
  solubility (mole fraction): 0.44
In toluene, 303.44 K
  solubility (mole fraction): 0.119
In toluene, 308.84 K
  solubility (mole fraction): 0.143
In toluene, 313.63 K
  solubility (mole fraction): 0.166
In toluene, 317.65 K
  solubility (mole fraction): 0.189
In toluene, 321.85 K
  solubility (mole fraction): 0.216
In toluene, 325.99 K
  solubility (mole fraction): 0.246
In toluene, 330.04 K
  solubility (mole fraction): 0.277
In toluene, 333.86 K
  solubility (mole fraction): 0.311
In toluene, 337.8 K
  solubility (mole fraction): 0.351
In toluene, 342.59 K
  solubility (mole fraction): 0.404
